Experimental data: patent US20170247429A1, “BLOOD-BRAIN BARRIER DISRUPTING AGENTS AND USES THEREOF” (TEL HASHOMER MEDICAL RESEARCH INFRASTRUCTURE AND SERVICES …, priority 2014, published 2017)

What was measured:
[1] = rat, in vivo, ip, 6 mg/kg
Protocol: Additionally, MTX was administered intraperitoneally to naïve rats (n=26) at a dosage of 6 mg/kg body weight on days 0, 2 and 4. […] The combined administration, MTX even at three times of its maximal tolerated dose, with folinic acid prevented MTX toxicity.

[2] = system: brain-glioma (CNS-1) tumor; assay: Tumor growth in glioma rat model (T1-weighted MRI tumor volumes); format: in vivo, Lewis male rats; settings: MTX 6 mg/kg IP, EA-HSA 0.5 mg/ml CED where combined
Protocol: Intracranial inoculation of the tumor was performed as follows: a midline scalp incision was carried out under general anesthesia in order to locate the bregma. A burr hole (1 mm) was drilled on the right side, 3 mm anterior and 2 mm lateral to the bregma. A 33-gauge needle attached to a 1,000 μl syringe was placed stereotactically into the striatum to a depth of 5 mm through which a pellet of 2×10^5 CNS-1 rat glioma cells precipitated in 10 μl PBS buffer was infused into the striatum. The infusion was performed with a BASI syringe pump at a rate of 2 μl/min over a period of 5 min. The burr hole was sealed with bone wax to avoid the tumors from growing out of the skull. The intracranial inoculation of the tumor is designated Day-4 in Table 2.
EA-HSA was administered by CED into the rat brains under full anesthesia. For CED, a midline scalp incision was made under anesthesia to identify the bregma. Then, a burr hole (1 mm) was made in the right region of the skull, 3 mm anterior and 2 mm lateral to the bregma. […]
The volume (in mm^3) of BBB disruption and the increase in tumor volume were calculated from T1-weighted MR images. […] The number of pixels in the ROIs was then counted and multiplied by the volume of a single pixel (voxel). Tumor growth rates were calculated by dividing the tumor volumes at days 2 and 7 post treatment with the baseline tumor volumes (measured at day 0).

[3] = system: intracranial CNS-1 glioma tumors; assay: Survival of glioma-bearing rats (Kaplan-Meier); format: in vivo, Lewis male rats; settings: rats bearing intracranial CNS-1 glioma; monitored up to 60 days
Protocol: The three rats groups were monitored for survival. Rats were monitored daily and sacrificed when lost>20% of body weight and/or were unable to eat or drink. Rats were monitored up to 60 days after the tumor cell implantation. The Kaplan-Meier survival curves were analyzed according to the Wilcoxon test.

Compound: CN(Cc1cnc2nc(N)nc(N)c2n1)c1ccc(C(=O)N[C@@H](CCC(=O)O)C(=O)O)cc1 [MTX, Methotrexate]
- toxicity of MTX regimen [1]: symptomatic toxicity
- tumor volume normalized to day 0 (tumor growth rate) ([2]; day 2 post treatment): 2.2±0.4
- tumor volume normalized to day 0 (tumor growth rate) ([2]; day 7 post treatment): 2.2±0.4
- median survival time [3]: 12 days
